The source of these data is article PMC6271274, “Synthesis, Leishmanicidal Activity and Theoretical Evaluations of a Series of Substituted bis-2-Hydroxy-1,4-Naphthoquinones” (Molecules, 2014).

Data set [1] deals with Leishmania. More on the design: method as in PMID 15654435. The following applies: cited from earlier work.
Data set [2] relates to L. amazonensis promastigotes. As to the kind of experiment: In vitro activity against L. amazonensis promastigotes. It is filed as cell-based. Particulars: Leishmania amazonensis, 48 h; for IC50: maximal concentration 100 μM; for Emax: up to 100 μM, read-out: Maximum Effect. As for the experimental part:
(§1) L. braziliensis promastigotes (MHOM/BR/87/BA788) were obtained from Dra. Valéria de Matos Borges at the Gonçalo Moniz Research Center, Fiocruz_BA. L. amazonensis promastigotes (MHOM/BR/77/LTB0016) were obtained from Dr. Eduardo Caio Torres dos Santos at the Oswaldo Cruz Institute-Fiocruz_RJ. The parasites were maintained in vitro in Schneider’s medium supplemented with 10% FBS and 2% human urine at 27 °C in BOD incubator.
(§2) The parasites were maintained in vitro in Schneider’s medium supplemented with 10% FBS and 2% human urine. Novel bis-lawsone analog stock solutions and pentamidine (reference leishmanicidal drug) were prepared in DMSO immediately before use. The cytotoxicities of the bis-lawsone analogs and pentamidine against the promastigotes were determined. Stationary phase L. braziliensis and L. amazonensis promastigotes were plated in 96-well vessels (Nunc, Roskilde, Denmark) at 1 × 10^5 cells per well in Schneider’s medium supplemented with 10% FBS and 2% human urine. Each compound solution was added at increasing concentrations (0.1–100 mg to the extract and its phases or 0.1–100 µΜ to the isolates and pentamidine). The cells were also cultured in a medium free of compounds, a vehicle (basal growth control) or with DMSO 0.1% (vehicle control). After 48 h, the extracellular load for L. braziliensis and L. amazonensis promastigotes was estimated by counting the promastigotes in Schneider’s medium using a CELM automatic cell counter (model CC530, Barueri, Brazil). The data obtained from experiments were expressed as the mean ± S.E.M., and the significant differences between the treated and vehicle groups were evaluated using ANOVA and Dunnett post-hoc tests.

Data set [3] can be described thus: Cytotoxicity against host cells (MTT assay). It is filed as cell-based. Particulars: mouse, J774 macrophage cell line; J774 macrophages, MTT assay, 48 h, maximal concentration 100 μM; read-out: LC50. On the procedure: (§3) The adherent-phenotype macrophage line was cultured in Dulbecco’s Modified Eagle’s medium (DMEM, Sigma, Dublin, Ireland) supplemented with 10% FBS at 37 °C, 95% humidity and 5% CO2.
(§4) To evaluate the cytotoxicity activity against the J774 cell line, the host cells were plated in 96-well vessels at 2 × 10^5 cells per well in a complete culture medium with 10% FBS at 37 °C. After 1 h, the wells were washed with HBSS to remove non-adherent cells, leaving approximately 1 × 10^5 adherent macrophages. The cells were cultured in DMEM complete medium supplemented with 10% FBS. The compounds and pentamidine were added at serial concentrations (0.1–100 µM). The cells were also cultured in media free from compounds, a vehicle (basal growth control) or media with DMSO 0.1% (vehicle control). The positive control (dead cells) was obtained through cellular lyses with 1% of Triton X-100 in DMEM complete medium. After 48 h, the cytotoxicity was evaluated using the MTT assay. The data obtained from the experiments were expressed as the mean ± S.E.M., and the significant differences between the treated and vehicle groups were evaluated using ANOVA and Dunnett post-hoc tests.
(In general: Tetrazolium assays rely on reduction of a dye to a coloured formazan, in cell work by metabolically active cells.)

Data set [4] deals with L. braziliensis promastigotes. As to the kind of experiment: In vitro activity against L. braziliensis promastigotes. It is filed as cell-based, Leishmania braziliensis. The following applies: for IC50 / Emax: Leishmania braziliensis, L. braziliensis promastigotes, 48 h; for IC50: maximal concentration 100 μM; for Emax: NT = no significant inhibitory activity for the parasite to 100 M (printed) compared to DMSO group, read-out: Maximum Effect; for Selectivity: IC50 to L. braziliensis lower than IC50 to L. amazonensis: ratio of promastigote IC50 values. On the procedure: as §1, §2

Data set [5] concerns L. amazonensis. As to the kind of experiment: In vivo activity against Leishmania amazonensis in infected BALB/c mice. The following applies: 30 μmol/kg/day × 28 days, i.p.; for Parasite load in the draining lymph node / Parasite load in the infected ear: limiting-dilution assay. The source says: (§5) This study was approved (protocol no. 2013.02) by the Ethics Committee for Animal Experimentation of the Federal University of Alagoas (Brazil). All animals received humane care in compliance with the “Principles of laboratory animal care” formulated by the National Society for Medical Research and the “Guide for the care and use of laboratory animals” prepared by the National Academy of Sciences (Washington, DC, USA). Next, 1 × 10^5 stationary promastigotes (5 days of culture in Schneider’s medium) of L. amazonensis (MHOM/BR/77/LTB0016) were subcutaneously inoculated into the right ear dermis of 6-week-old female BALB/c mice weighing ca. 20 g. and were later intraperitoneally treated with 3a or glucantime at 30 μmol/kg × 28 days. The lesion size was measured using a paquimeter. The parasite loads of infected ears and draining lymph nodes were determined using a quantitative limiting-dilution assay. Complex toxicity was also evaluated through biochemistry dosages in plasma. The experimental data were expressed as the mean ± S.E.M., and the significant differences between the treated and vehicle groups were evaluated using ANOVA and Dunnett post-hoc tests.

The subject of data set [6] is J774 cell line. As to the kind of experiment: Cytotoxicity against host cells (MTT assay). It is filed as cell-based. Particulars: for Effect on J774 cell line viability / cytotoxicity to the host cells (in words): 48 h of incubation, at 100 µM; for Maximum Cytotoxicity: J774 macrophages, MTT assay, 48 h, NT = no significant lethal activity to cell until 100 M (printed) compared to DMSO group. On the procedure: as §3, §4

The nature of data set [7]: In vivo toxicity (spleen weight, plasma biochemistry) in infected BALB/c mice. The following applies: BALB/c mice infected with L. amazonensis, 30 μmol/kg/day × 28 days, i.p.
Text: as §5

The test system of data set [8] is promastigote forms. Particulars: stated as reason for choice of reference drug; no reference given; cited from earlier work.
Data set [9] deals with L. braziliensis. More on the design: method as in PMID 15654435. Particulars: promastigotes; cited from earlier work.
Data set [10] has as its system L. amazonensis. More on the design: method as in PMID 15654435. Particulars: promastigotes; cited from earlier work.

“And” between values parts separate entries of the source, which are not always exact repeats. Equal entries are not always repeated.

isolapachol: the “Antileishmanial activity (in words)” value in data set [1] is “significant activity”.

Turning to `O=C1C(O)=C(C(C2=C(O)C(=O)c3ccccc3C2=O)c2ccccc2)C(=O)c2ccccc21` [Compound 3d, 3,3'-(Phenylmethylene)-bis[2-hydroxy-1,4-naphthalenedione]], the figures for the IC50 in data set [2] and in [4] were 0.3 ± 0.1 µM and above 100 µM, respectively. Further, the Emax in [2] was determined as 85 ± 3.8%. Besides, in [3], the CC50 at 48 h is above 100 µM. Further, in [4] (until 100 µM), the “Activity against promastigote forms of L. braziliensis (in words)” value is recorded as “did not present activity”.

With `O=C1C(O)=C(CC2=C(O)C(=O)c3ccccc3C2=O)C(=O)c2ccccc21` [Compound 3a, 3,3'-(Methylene)-bis[2-hydroxy-1,4-naphthalenedione]], in data set [5], the “Parasite load in the draining lymph node” value was “did not decrease” and the “Parasite load in the infected ear” value is recorded as “did not decrease”. In addition, the “Lesion size for the infected ear” value in data set [5] (third week after the treatment began) is given as “decreased”. Also, in data set [2], 71 ± 1.1 µM corresponded to half-maximal inhibition (IC50) and the Emax worked out at 72.8 ± 1%. The CC50 at 48 h in [3] was above 100 µM. In addition, in data set [6], the “Effect on J774 cell line viability / cytotoxicity to the host cells (in words)” value is “without cytotoxicity”. In data set [4], the IC50 (as a rule, the concentration at which inhibition is half-maximal) was found to be 0.9 ± 0.08 µM; the Emax was 88.4 ± 0.9%; the “Selectivity: IC50 to L. braziliensis lower than IC50 to L. amazonensis” value amounted to 10 times. In data set [7], the “Alanine aminotransferase (ALT) in plasma” value is “nor altered” and the “Aspartate aminotransferase (AST) in plasma” value is reported as “nor altered”. Further, the Spleen weight entry in data set [7] (last day of treatment) was “neither induced a change”.

For “meglumine antimoniate [glucantime, reference compound]”, in [5], the “Parasite load in the draining lymph node” value is “did not decrease” and the “Parasite load in the infected ear” value is recorded as “did not decrease”. Moreover, the “Activity against promastigote forms (in words)” value in [8] was “not active”.

`CCC(CC)C(C1=C(O)C(=O)c2ccccc2C1=O)C1=C(O)C(=O)c2ccccc2C1=O` [Compound 3c, 3,3'-(2-Ethylbutylidene)-bis[2-hydroxy-1,4-naphthalenedione]]: in data set [2], inhibition was half-maximal at 0.4 ± 0.1 µM (IC50) and the Emax was 75.3 ± 1.3%. The CC50 at 48 h in [3] came to 67.4 ± 2.1 µM. The “Maximum Cytotoxicity” value in [6] is 71.7% ± 3.8% and 71.7 ± 3.8 %. Besides, in data set [4], the IC50 came to 34.7 ± 4.3 µM and the Emax was 90.4 ± 0.7%.

Take `O=C1C(O)=C(C(C2=C(O)C(=O)c3ccccc3C2=O)c2ccc(O)cc2)C(=O)c2ccccc21` [Compound 3f, 3,3'-(4-Hydroxyphenylmethylene)-bis[2-hydroxy-1,4-naphthalenedione]]: the figures for the IC50 in data set [2] and in data set [4] were 68.7 ± 15.1 µM and 38.7 ± 2 µM, respectively. Besides, the figures for the Emax in [2] and in [4] were 55.4 ± 4.7% and 91.7 ± 0.3%, respectively. The CC50 at 48 h in data set [3] was above 100 µM.

Consider `O=C1C(O)=C(C(C2=C(O)C(=O)c3ccccc3C2=O)c2ccc(F)cc2)C(=O)c2ccccc21` [Compound 3h, 3,3'-(4-Fluorophenylmethylene)-bis[2-hydroxy-1,4-naphthalenedione]], for which, in data set [2], the half-maximal inhibitory concentration (IC50) came to 0.6 ± 0.2 µM and the Emax was 51 ± 5.5%. In data set [3], the CC50 at 48 h is above 100 µM. The “Effect on J774 cell line viability / cytotoxicity to the host cells (in words)” value in [6] is recorded as “without cytotoxicity”. Besides, in [4], half-maximal inhibition (IC50) was put at 0.8 ± 0.03 µM and the Emax is 88.7 ± 0.3%.

As for `CCCCCC(C1=C(O)C(=O)c2ccccc2C1=O)C1=C(O)C(=O)c2ccccc2C1=O` [Compound 3b, 3,3'-(Hexylidene)-bis[2-hydroxy-1,4-naphthalenedione]], in data set [2], the IC50 came to 5.2 ± 0.1 µM and the Emax stood at 57.2 ± 3.8%. Besides, the CC50 at 48 h in data set [3] was above 100 µM. Besides, in [6], the “Effect on J774 cell line viability / cytotoxicity to the host cells (in words)” value is given as “without cytotoxicity”. Besides, in [4], the concentration for half-maximal inhibition (IC50) turned out to be 5.2 ± 0.1 µM and the Emax was determined as 93 ± 0.1%.

For `N=C(N)c1ccc(OCCCCCOc2ccc(C(=N)N)cc2)cc1` [Pentamidine, reference compound], the IC50 in data set [2] is 2.3 ± 0.8 µM; in data set [4], 0.8 ± 0.06 µM. Moreover, the Emax came to 85.4 ± 0.4% in data set [2] and 91 ± 0.1% in data set [4]. In addition, the CC50 at 48 h in data set [3] is 73 ± 6 µM. For the same molecule, the “Maximum Cytotoxicity” value is on record as 78.0 ± 3.8 % in [6] and 78.0% ± 3.8% in [6] (listed as pentamidine).

As to `CC(C)=CCC1=C(O)C(=O)c2ccccc2C1=O` [Lapachol], the “Antileishmanial activity (in words)” value in data set [1] is reported as “significant activity”.

With `CC(=O)OC1=C(C=CC(C)C)C(=O)c2ccccc2C1=O` [isolapachol acetate], the IC50 is 3.4 mg/L in data set [9] and 1.6 mg/L in data set [10].

Consider `CC(C)CCC1=C(O)C(=O)c2ccccc2C1=O` [dihydrolapachol], for which the “Antileishmanial activity (in words)” value in data set [1] is “significant activity”.

With `O=C1C(O)=C(C(C2=C(O)C(=O)c3ccccc3C2=O)c2ccc([N+](=O)[O-])cc2)C(=O)c2ccccc21` [Compound 3g, 3,3'-(4-Nitrophenylmethylene)-bis[2-hydroxy-1,4-naphthalenedione]], in data set [2], 7.7 ± 1.2 µM corresponded to half-maximal inhibition (IC50) and the Emax is 55.6 ± 3.2%. In addition, the CC50 at 48 h in data set [3] was above 100 µM. Besides, in data set [4], the IC50 amounted to 2.8 ± 0.1 µM and the Emax was found to be 91.7 ± 1.3%.

Regarding `COc1ccc(C(C2=C(O)C(=O)c3ccccc3C2=O)C2=C(O)C(=O)c3ccccc3C2=O)cc1` [Compound 3e, 3,3'-(4-Methoxyphenylmethylene)-bis[2-hydroxy-1,4-naphthalenedione]], in [2], the IC50 was above 100 µM and the Emax was 44.6 ± 2.4%. For the same molecule, the CC50 at 48 h in data set [3] was above 100 µM. Also, the “Effect on J774 cell line viability / cytotoxicity to the host cells (in words)” value in data set [6] was “without cytotoxicity”. In addition, in data set [4], the IC50 is 0.9 ± 0.04 µM, the Emax worked out at 61.6 ± 7.5% and the “Selectivity: IC50 to L. braziliensis lower than IC50 to L. amazonensis” value was determined as 10 times.
